Test results as given in patent US8802597B2, “Herbicidal pyrimidines” (E I du Pont de Nemours and Company, priority 2003, dated 2014).
Like-named read-outs stand apart in the source and are kept apart here.

Legend:
[1] = system: sulfonylurea herbicide-resistant (SU-resistant) catchweed bedstraw (GALAP; Galium aparine); experiment: Test K postemergence; format: in vivo; settings: 16 g a.i./ha, 15 days
Experimental: (§1) Seeds of plant species selected from sulfonylurea herbicide-susceptible (SU-susceptible) and sulfonylurea herbicide-resistant (SU-resistant) catchweed bedstraw (GALAP; Galium aparine) and wheat (TRZAW; Triticum aestivum) were treated with postemergence applications of test chemicals formulated in a non-phytotoxic solvent mixture which included a surfactant. Plants were treated at the 2-3 leaf stage and 2 whorl stage for wheat and catchweed bedstraw, respectively. Treated plants and controls were maintained in a controlled growth environment for 15 days after which time all species were compared to controls and visually evaluated. Plant response ratings, summarized in Table K, are based on a scale of 0 to 100 where 0 is no effect and 100 is complete control. A dash (-) response means no test result.

[2] = system: sulfonylurea herbicide-susceptible (SU-susceptible) catchweed bedstraw (GALAP; Galium aparine); experiment: Test K postemergence; format: in vivo; settings: 16 g a.i./ha, 15 days
Experimental: as §1

[3] = system: wheat (TRZAW; Triticum aestivum); experiment: Test K postemergence; format: in vivo; settings: 16 g a.i./ha, 15 days
Experimental: as §1

[4] = system: barnyardgrass (Echinochloa crus-galli); experiment: Test A pre/postemergence; format: in vivo; settings: Echinochloa crus-galli, 240 h, read-out: Plant response rating, Barnyardgrass; for pest or weed control at 125 g/ha: 125 g ai/ha; for pest or weed control at 500 g/ha: 500 g ai/ha
How it was run: (§2)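 Seeds sown in loam–sand blend received a preemergence directed soil spray of test chemical in non-phytotoxic solvent with surfactant; same-formulation postemergence spray given concurrently to plants 2–10 cm tall at 1- to 2-leaf stage. Greenhouse ~ten days, then visual injury rating versus untreated controls, 0 (no effect) to 100 (complete control).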

[5] = system: crabgrass (Digitaria sanguinalis); experiment: Test A pre/postemergence; format: in vivo; settings: Digitaria sanguinalis, 240 h, read-out: Plant response rating, Crabgrass; for pest or weed control at 125 g/ha: 125 g ai/ha; for pest or weed control at 500 g/ha: 500 g ai/ha
How it was run: as §2

[6] = system: giant foxtail (Setaria faberi); experiment: Test A pre/postemergence; format: in vivo; settings: Setaria faberi, 240 h, read-out: Plant response rating, Foxtail, Giant; for pest or weed control at 125 g/ha: 125 g ai/ha; for pest or weed control at 500 g/ha: 500 g ai/ha
How it was run: as §2

[7] = system: morningglory (Ipomoea spp.); experiment: Test A pre/postemergence; format: in vivo; settings: Ipomoea, 240 h, read-out: Plant response rating, Morningglory; for pest or weed control at 125 g/ha: 125 g ai/ha; for pest or weed control at 500 g/ha: 500 g ai/ha
How it was run: as §2

[8] = system: redroot pigweed (Amaranthus retroflexus); experiment: Test A pre/postemergence; format: in vivo; settings: Amaranthus retroflexus, 240 h, read-out: Plant response rating, Pigweed; for pest or weed control at 125 g/ha: 125 g ai/ha; for pest or weed control at 500 g/ha: 500 g ai/ha
How it was run: as §2

[9] = system: velvetleaf (Abutilon theophrasti); experiment: Test A pre/postemergence; format: in vivo; settings: Abutilon theophrasti, 240 h, read-out: Plant response rating, Velvetleaf; for pest or weed control at 125 g/ha: 125 g ai/ha; for pest or weed control at 500 g/ha: 500 g ai/ha
How it was run: as §2

[10] = post-emergence, Postemergence, 0 to 100 scale (0 no effect, 100 complete control)
[11] = pre-emergence, Preemergence, 0 to 100 scale where 0 is no effect and 100 is complete control, approximately ten days

| SMILES | pest or weed control at 125 g/ha [4, 10] [%] | pest or weed control at 500 g/ha [4, 10] [%] | pest or weed control at 125 g/ha [4, 11] [%] | pest or weed control at 500 g/ha [4, 11] [%] | pest or weed control at 125 g/ha [5, 10] [%] | pest or weed control at 500 g/ha [5, 10] [%] | pest or weed control at 125 g/ha [5, 11] [%] | pest or weed control at 500 g/ha [5, 11] [%] | pest or weed control at 125 g/ha [6, 10] [%] | pest or weed control at 500 g/ha [6, 10] [%] | pest or weed control at 125 g/ha [6, 11] [%] | pest or weed control at 500 g/ha [6, 11] [%] | pest or weed control at 125 g/ha [7, 10] [%] | pest or weed control at 500 g/ha [7, 10] [%] | pest or weed control at 125 g/ha [7, 11] [%] | pest or weed control at 500 g/ha [7, 11] [%] | pest or weed control at 125 g/ha [8, 10] [%] | pest or weed control at 500 g/ha [8, 10] [%] | pest or weed control at 125 g/ha [8, 11] [%] | pest or weed control at 500 g/ha [8, 11] [%] | also measured |
| --- | --- | --- | --- | --- | --- | --- | --- | --- | --- | --- | --- | --- | --- | --- | --- | --- | --- | --- | --- | --- | --- |
| COc1nc(C)nc(NC(=O)NS(=O)(=O)c2ccccc2Cl)n1 [Chlorsulfuron, chlorsulfuron, reference compound] | – | – | – | – | – | – | – | – | – | – | – | – | – | – | – | – | – | – | – | – | Plant response rating (0 to 100 scale) [1]: 5; Plant response rating (0 to 100 scale) [2]: 100; Plant response rating (0 to 100 scale) [3]: 20 |
| NC(=O)c1nc(C2CC2)nc(N)c1Cl [Compound 85] | 0 | 0 | 0 | 0 | 0 | 0 | 0 | 5 | 0 | 0 | 0 | 0 | 20 | 75 | 0 | 20 | 75 | 90 | 50 | 60 | pest or weed control at 125 g/ha [9, 10]: 25%; pest or weed control at 500 g/ha [9, 10]: 60%; pest or weed control at 125 g/ha [9, 11]: 0%; pest or weed control at 500 g/ha [9, 11]: 10%; melting point: 232 to 236 °C |
| CCOC(=O)c1nc(C(C)C)nc(N)c1Cl [Compound 108] | 0 | 5 | 10 | 15 | 0 | 0 | 0 | 20 | 0 | 10 | 0 | 0 | 70 | 90 | 0 | 90 | 50 | 85 | 55 | 75 | pest or weed control at 125 g/ha [9, 10]: 35%; pest or weed control at 500 g/ha [9, 10]: 65%; pest or weed control at 125 g/ha [9, 11]: 10%; pest or weed control at 500 g/ha [9, 11]: 50%; melting point: 102 to 103 °C |
| COC(=O)c1nc(C(C)C)nc(N)c1Cl [Compound 110] | 0 | 10 | 0 | 15 | 0 | 10 | 0 | 15 | 0 | 5 | 0 | 0 | 70 | 85 | 0 | 90 | 55 | 85 | 40 | 65 | pest or weed control at 125 g/ha [9, 10]: 40%; pest or weed control at 500 g/ha [9, 10]: 65%; pest or weed control at 125 g/ha [9, 11]: 25%; pest or weed control at 500 g/ha [9, 11]: 35%; melting point: 100 to 104 °C (dec.) |
